In patent publication US6143492A, “Optical molecular sensors for cytochrome P450 activity” (Aurora Biosciences Corporation, priority 1999, dated 2000):
Blank lines part the entries; values can stand above or below the molecule they belong to.

Columns and labels:
[1] = biological target: CYP 2D6 (Homo sapiens, UniProt P10635); experiment: in vitro
Description: CYP 2D6 was incubated with 10 μM concentrations of various known inhibitors and drug substrates and residual CYP 2D6 activity assayed with the fluorogenic substrate MOBFC. The assay was performed in a 96-well plate at room temp and at a volume of 100 μl/well. 4×enzyme buffer was prepared and 25 μl was added to each well on the plate, for final assay concentrations of 3.3 mM glucose-6-phosphate, 0.4 units/ml glucose-6-phosphate dehydrogenase and 10 mM MgCl2 in 100 mM K+ phosphate, pH 8.0. […] Six consecutive 1:3 dilutions were made and 50 μl of each was added to appropriate wells on the assay plate. The CYP2D6 was diluted to a solution of 2 pmol/10 μl in 100 mM K+ phosphate and 10 μl was added to each well. 20 μl of buffer was added to each well containing standard. The drug inhibitors were allowed to pre-incubated with the CYP 2D6 enzyme for 1 hr prior to the addition of the MOBFC substrate. […] Hydroxy-trifluoro-methylcoumarin was diluted to 100 μM in K+ phosphate buffer, and seven consecutive 1:2 dilutions were made. 10 μl of each dilution was added to the appropriate wells on the plate containing 90 μl of 100 mM K+ phosphate, pH 8.0.

[2] = substrate: COc1ccc2c(C(F)(F)F)cc(=O)oc2c1; experiment: Kinetics of fluorogenic substrates with CYP 2D6; type: biochemical, human; conditions: other: CYP 2D6

Molecule: CC(C)NC[C@H](O)COc1cccc2ccccc12 (racemic) [Propanolol]
Ki ([1]; human, cyp 2d6, pH 8): > 30 µM

Ki [1]: > 30 µM
Molecule: CCC1C2CC3C4N(C)c5ccccc5C45CC(C2C5O)N3C1O (stereo not shown) [Amjaline]

B1: CYP 2D6 (Homo sapiens) (protein)
chain: MGLEALVPLAVIVAIFLLLVDLMHRRQRWAARYPPGPLPLPGLGNLLHVDFQNTPYCFDQLRRRFGDVFSLQLAWTPVVVLNGLAAVREALVTHGEDTADRPPVPITQILGFGPRSQGVFLARYGPAWREQRRFSVSTLRNLGLGKKSLEQWVTEEAACLCAAFANHSGRPFRPNGLLDKAVSNVIASLTCGRRFEYDDPRFLRLLDLAQEGLKEESGFLREVLNAVPVLLHIPALAGKVLRFQKAFLTQLDELLTEHRMTWDPAQPPRDLTEAFLAEMEKAKGNPESSFNDENLRIVVADLFSAGMVTTSTTLAWGLLLMILHPDVQRRVQQEIDDVIGQVRRPEMGDQAHMPYTTAVIHEVQRFGDIVPLGVTHMTSRDIEVQGFRIPKGTTLITNLSSVLKDEAVWEKPFRFHPEHFLDAQGHFVKPEAFLPFSAGRRACLGEPLARMELFLFFTSLLQHFSFSVPTGQPRPSHHGVFAFLVSPSPYELCAVPR
Km [2]: 10.0 µM
kcat/Km [2]: 417 M⁻¹ s⁻¹
